“Also recorded” adds a separate entry of the source.
How the values were obtained:
Assay type in all cases: physicochemical
[1] = Guanidinium chloride (GnCl) titration monitored by near-UV CD at 280 nm; conditions: standard aqueous conditions at 25° C.; extrapolated from variable GnCl concentration near-UV CD data (280 nm), 50 μM protein
Description: CD spectra were collected using an Aviv (Lakewood, N.J.) stopped flow CD Spectropolarimeter Model 202SF. The far-UV (190-260 nm) CD spectra were obtained using a 1 mm path length cell and in 10 mM PBS buffer at a pH of 7.5 at 100 μM protein concentrations. The near-UV (245-320 nm) CD spectra were obtained using a 1 cm path length cell and in 10 mM PBS buffer at a pH of 7.5 at 50 μM concentrations. The consensus CD spectra were established as the Gaussian weighted average of 40 scans with evaluation of ellipticity every 0.5 nm, each having an averaging time of 0.5 s. […] Concentrations of protein stock solutions for conversion of millidegrees to mean residue ellipticity (MRE) were determined by UV absorbance at 280 nm using the standard extinction coefficients for the tryptophan (5690 M-1 cm-1), tyrosine (1280M-1 cm-1), and disulfide-bridged cysteine (125M-1 cm-1) chromophores in 6 M GnCl. […]
Secondary and tertiary structure content of the mini-protein was initially evaluated using circular dichroism (CD) spectroscopy (FIG. 4A,B). In the near-UV (260-320 nm) CD spectrum, ellipticity can arise from indole and phenol absorbance bands when tryptophan or tyrosine side chains are present in an asymmetric environment. […]

[2] = Sedimentation equilibrium analysis; conditions: concentration of 1.8 mM at 4° C.
Description: Sedimentation equilibrium measurements were carried out on a Beckman (Brea, Calif.) XL-A analytical ultracentrifuge equipped with absorption optics and an An-60 Ti rotor. Analysis was conducted at rotor speeds of 45,000 and 48,000 rpm at 4° C. Data were acquired at two wavelengths per rotor speed setting and processed globally for the best fit to a single-species model of absorbance versus radial distance. Solvent density and protein partial specific volume were calculated according to solvent and protein composition, respectively.
The native sequence on which to initiate the mini-protein design was chosen based on two primary criteria. First, the present inventors sought a sequence containing a loop featuring a β-hairpin, which could be nucleated using a D-Pro-Gly motif (2, 7). Most of the loop regions observed in WSXWS motifs are lacking in canonical forms of secondary structure that could be enforced with rational peptide design (FIG. 2). Second, the present inventors wanted a sequence containing three arginine residues on the β-strand portion of the fold composing the cation-π interaction network. The only sequence meeting these two criteria was that of the WSXWS motif found in IL3RB (UniprotID: P32927). […] The apparent molecular mass was within 10% of that calculated for an ideal monomer, with no systematic deviation of the residuals. […]

[3] = Near-UV CD thermal melts monitoring mean residue ellipticity at 280 nm; conditions: 10 mM PBS buffer pH 7.5, elevated temperatures
Description: FIGS. 6A-6B. Near-UV CD thermal melts for the TrpPlexus cation-π interation network mutants. (6A) Schematic of the cation-π network of TrpPlexus detailing variable amino acid positions 1, 3, and 5 in the mutant sequences. (6B) Near-UV CD thermal melts for TrpPlexus (“RRR”) and each mutant monitoring mean residue ellipticity at 280 nm (50 μM protein, 1 cm path length, 10 mM PBS buffer pH 7.5). Inset compares side-chain functionalities of the arginine (R), lysine (K), and L-citrulline (Cit) residues.
CD spectra were collected using an Aviv (Lakewood, N.J.) stopped flow CD Spectropolarimeter Model 202SF. […] Concentrations of protein stock solutions for conversion of millidegrees to mean residue ellipticity (MRE) were determined by UV absorbance at 280 nm using the standard extinction coefficients for the tryptophan (5690 M-1 cm-1), tyrosine (1280M-1 cm-1), and disulfide-bridged cysteine (125M-1 cm-1) chromophores in 6 M GnCl. […]
To explore the influence of cationic groups on fold stability, mutants were designed that replaced particular guanidinyl (arginine) side chain groups with either amino (lysine) cations or charge-neutral urea (L-citrulline) groups (FIG. 6). The near-UV CD signal monitored at 280 nm provides a metric of relative tertiary structure content (FIG. 6B). […]

Substance: RVRVRTSRpGYNGTWSEWS [TrpPlexus]
- ΔG° for folding [1]: approximately −6.7 kcal/mol
- oligomeric state by sedimentation equilibrium [2]: monomeric
- near-UV CD signal as a function of temperature (thermostability) [3]: slightly increase in strength at elevated temperatures, indicating thermostability; also recorded: weakly sigmoidal transitions to stronger ellipticities at elevated temperatures
